For orientation: IC50 means the midpoint of a concentration-inhibition curve. The CL/F is clearance divided by bioavailability, as obtained after extravascular dosing. Usually half-life stands for how long it takes for the measured level to halve. The term Cmax denotes the peak of the concentration-time curve. As a reminder, the MRT is the average time that molecules of a dose stay in the body. The term AUC denotes concentration integrated over time. Read a low AUC as less exposure. As a reminder, the NOAEL is the highest tested level that showed no adverse finding.

Calls of active or inactive are those of the source. The rule behind the calls is not given here. Bounds are passed on as bounds.

The values that follow come from ChEMBL document CHEMBL3817824, “Synthesis and biological evaluation of new [1,2,4]triazolo[4,3-a]pyridine derivatives as potential c-Met inhibitors” (Bioorg Med Chem, 2016).

Data set [1] deals with Hepatocyte growth factor receptor (Homo sapiens, UniProt P08581). Kind of data set: Inhibition of c-Met (unknown origin) incubated for 1 hr by spectrophotometric analysis.
A short description of data set [2]: Cytotoxicity against human SNU5 cells assessed as reduction in cell survival incubated for 3 days by cell titre-glo assay. Conditions: SNU-5, 72 h.
Data set [3] can be described thus: Apparent oral clearance in Sprague-Dawley rat at 5 mg/kg. In kind it is ADME, organism-based. To be noted: in vivo.
Data set [4] in a line: Half life in Sprague-Dawley rat at 5 mg/kg. The class given is ADME, organism-based. To be noted: in vivo.
Data set [5] can be described thus: Apparent volume of distribution during terminal phase in Sprague-Dawley rat at 5 mg/kg. The class given is ADME, organism-based. To be noted: in vivo, read-out: Vz/F.
Data set [6] can be described thus: Cmax in Sprague-Dawley rat at 5 mg/kg. The class given is ADME, organism-based. On the set-up: dose 5 mg/kg. To be noted: in vivo.
Data set [7] can be described thus: Mean residence time in Sprague-Dawley rat at 5 mg/kg. In kind it is ADME, organism-based. To be noted: in vivo.
Data set [8] can be described thus: AUC in Sprague-Dawley rat at 5 mg/kg. The class given is ADME, organism-based. To be noted: in vivo.
The nature of data set [9]: Antitumor activity against human MKN45 cells xenografted in nude BALB/c mouse assessed as inhibitory rate at 30 mg/kg, ig measured twice every week. To be noted: MKN-45, po, read-out: TGI. In kind it is functional.
A short description of data set [10]: Toxicity in ig dosed nude BALB/c mouse administered as qd treated for 28 days followed by rehabilitation for 28 days. In kind it is organism-based. Conditions: in vivo, po.
A short description of data set [11]: Antitumor activity against human MKN45 cells xenografted in nude BALB/c mouse assessed as inhibitory rate at 60 mg/kg, ig measured twice every week. In kind it is functional. Conditions: MKN-45, po, read-out: TGI. For orientation: Xenograft models place foreign cells or tissue in a host animal.
For data set [12], the system named is Mus musculus. Kind of data set: Toxicity in nude BALB/c mouse assessed as clinical pathologies at 15 to 225 mg/kg, ig qd for treated for 28 days followed by rehabiliation for 28 days measured on day 56 relative to vehicle control. In kind it is organism-based. To be noted: in vivo, po, 672 h.
In data set [13] the test system is NCI-H1993. Kind of data set: Antitumor activity against human NCI-H1993 cells xenografted in nude BALB/c mouse assessed as inhibitory rate at 30 mg/kg, ig measured twice every week. In kind it is functional. Conditions: NCI-H1993, po, read-out: TGI.
Data set [14] deals with Mus musculus. Kind of data set: Acute toxicity in nude BALB/c mouse assessed as clinical pathologies at 300 to 600 mg/kg, ig qd after 28 days. The class given is organism-based. To be noted: in vivo, po, 672 h.
Data set [15] is described as follows: Antitumor activity against human MKN45 cells xenografted in nude BALB/c mouse assessed as inhibitory rate at 10 mg/kg, ig measured twice every week. The class given is functional. Conditions: MKN-45, po, read-out: TGI.
Data set [16] concerns NCI-H1993. Kind of data set: Antitumor activity against human NCI-H1993 cells xenografted in nude BALB/c mouse assessed as inhibitory rate at 10 mg/kg, ig measured twice every week. In kind it is functional.
In data set [17] the test system is Mus musculus. Kind of data set: Toxicity in nude BALB/c mouse assessed as effect on body weight at 15 to 225 mg/kg, ig qd for treated for 28 days followed by rehabiliation for 28 days measured during compound dosing and rehabilitation period relative to vehicle control. The class given is organism-based. Conditions: in vivo, po, 672 h.
A short description of data set [18]: Acute toxicity in ig dosed nude BALB/c mouse administered as qd measured for 14 days. To be noted: in vivo, po. The class given is organism-based.
For data set [19], the system named is NCI-H1993. Kind of data set: Antitumor activity against human NCI-H1993 cells xenografted in nude BALB/c mouse assessed as inhibitory rate at 60 mg/kg, ig measured twice every week. The class given is functional. Conditions: NCI-H1993, po, read-out: TGI.
Data set [20] has as its system NCI-H1993. Kind of data set: Cytotoxicity against human NCI-H1993 cells assessed as reduction in cell survival incubated for 3 days by cell titre-glo assay. In kind it is functional, cell-based. Conditions: NCI-H1993, 72 h.
Data set [21] has as its system NCI-N87. Kind of data set: Cytotoxicity against human NCI-N87 cells assessed as reduction in cell survival incubated for 3 days by cell titre-glo assay. In kind it is functional, cell-based. Conditions: NCI-N87, 72 h.
Data set [22] in a line: Cytotoxicity against human MKN45 cells assessed as reduction in cell survival incubated for 3 days by cell titre-glo assay. The class given is functional, cell-based. To be noted: MKN-45, 72 h.
A short description of data set [23]: Cytotoxicity against human MHCC97H cells assessed as reduction in cell survival incubated for 3 days by cell titre-glo assay. The class given is functional, cell-based. Conditions: 72 h.
Data set [24] relates to A549. Kind of data set: Cytotoxicity against human A549 cells assessed as reduction in cell survival incubated for 3 days by cell titre-glo assay. In kind it is functional, cell-based. To be noted: A549, 72 h.
The test system of data set [25] is NCI-H1975. Kind of data set: Cytotoxicity against human NCI-H1975 cells assessed as reduction in cell survival incubated for 3 days by cell titre-glo assay. In kind it is functional, cell-based. Conditions: NCI-H1975, 72 h.
Data set [26] can be described thus: Cytotoxicity against human HCCLM3 cells assessed as reduction in cell survival incubated for 3 days by cell titre-glo assay. Conditions: HCCLM3, 72 h. The class given is functional, cell-based.
Data set [27] is described as follows: Cytotoxicity against human HuH7 cells assessed as reduction in cell survival incubated for 3 days by cell titre-glo assay. In kind it is functional, cell-based. To be noted: Huh-7, 72 h.
Data set [28] is described as follows: Cytotoxicity against human MHCC97L cells assessed as reduction in cell survival incubated for 3 days by cell titre-glo assay. In kind it is functional, cell-based. Conditions: 72 h.
The target in data set [29] is RAC-alpha serine/threonine-protein kinase (Homo sapiens, UniProt P31749). Conditions: Huh-7, 100 to 1000 nM.
Description: Inhibition of AKT phosphorylation in human HuH7 cells at 100 to 1000 nM after 6 to 24 hrs by Western blot analysis
Data set [30] has as its system MKN-45. Kind of data set: Antitumor activity against human MKN45 cells xenografted in ig dosed nude BALB/c mouse measured twice every week. In kind it is functional, organism-based.
Data set [31] relates to Huh-7. Kind of data set: Inhibition of ERK phosphorylation in human HuH7 cells at 100 to 1000 nM after 6 to 24 hrs by Western blot analysis. In kind it is cell-based.
Data set [32] deals with NCI-H1993. Kind of data set: Antitumor activity against human NCI-H1993 cells xenografted in ig dosed nude BALB/c mouse measured twice every week. The class given is functional, organism-based.

Turning to `CN1C(=O)COc2c1cnc1ccc(Sc3nnc4c(OC(F)F)cc(-c5cnn(C)c5)cn34)cc21`, the IC50 in data set [1] and in data set [2] was over 1000 nM in each case.
Take `COCCN1C(=O)COc2c1cnc1ccc(Sc3nnc4ccc(-c5cnn(C)c5)cn34)cc21`: in data set [2], the IC50 was 19.1 nM.
Take `Cn1cc(-c2cc(F)c3nnc(Sc4ccc5ncc6c(c5c4)OCCN6C(=O)C4CC4)n3c2)cn1`: the IC50 in data set [2] stood at 12.3 nM.
On the same count and under the same terms, next, `Cn1cc(-c2cc(F)c3nnc(Sc4ccc5ncc6c(c5c4)OC[C@H]4CCCN64)n3c2)cn1`: 29.2 nM; `Cn1cc(-c2ccc3nnc(Sc4ccc5ncc6c(c5c4)OCC(=O)N6)n3c2)cn1`: 85.8 nM; `Cn1cc(-c2cc(F)c3nnc(Sc4ccc5ncc6c(c5c4)OCC(=O)N6)n3c2)cn1`: 17.8 nM.
For the molecule `Cn1cc(-c2ccc3nnc(C(F)(F)c4ccc5ncccc5c4)n3n2)cn1` [JNJ-38877605], the CL/F in data set [3] amounted to 5.81 mL/min/kg. This molecule had a half-life in data set [4] of 2.97 h. Moreover, the Vd/F in [5] was 1.48 L/kg. For the same molecule, the peak level in data set [6] (Cmax) was 2370 ng/mL. Moreover, the MRT in [7] is 4.9 h. In data set [8], this molecule yielded an AUC of 17300 ng·h/mL.
As for `CN1C(=O)COc2c1cnc1ccc(Sc3nnc4ccc(-c5cnn(C)c5)cn34)cc21`, in [2], the IC50 came to 3 nM.
With `CN1C(=O)COc2c1cnc1ccc(Sc3nnc4c(F)cc(-c5cnn(C)c5)cn34)cc21.CS(=O)(=O)O`, the inhibition in vivo at 30 mg/kg in data set [9] was 34.2%; in [13] it was 19.5%. Moreover, the CL/F in data set [3] was 0.68 mL/min/kg. The same molecule yielded an NOAEL at 672 h in data set [10] of 225 mg/kg/day. The results for the inhibition in vivo at 60 mg/kg in data set [11] and in data set [19] were 61.4% and 24.9%, respectively. The Activity entry in [12], in [14] and in data set [17] was “Non-toxic” throughout. The inhibition in vivo at 10 mg/kg amounted to 29.5% in data set [15] and 24.4% in [16] (NCI-H1993, po, read-out: TGI). In addition, in [18], the NOAEL at 336 h was 600 mg/kg/day.
For the molecule `COCCN1C(=O)COc2c1cnc1ccc(Sc3nnc4c(F)cc(-c5cnn(C)c5)cn34)cc21`, the IC50 in data set [2] turned out to be 4.5 nM.
The same measure, in the same setting: with `Cn1cc(-c2cc(F)c3nnc(Sc4ccc5ncc6c(c5c4)OC[C@@H]4CCCN64)n3c2)cn1` the figure was 327 nM.
For `Cn1cc(-c2ccc3nnc(Sc4ccc5ncccc5c4)n3n2)cn1` [SGX-523], the IC50 was 3.9 nM in [2]; 25 nM in data set [20]; over 10000 nM in [21]; 15 nM in [22]; 11 nM in [23]; over 10000 nM in data set [24]. In addition, the IC50 in [25] was over 10000 nM; in [26], 24 nM; in data set [27], over 10000 nM; in [28], 18 nM. Moreover, the inhibition in vivo at 10 mg/kg in data set [15] turned out to be 11.2%. For the same molecule, the TGI result in data set [16] is “inactive”.
In the case of `CN1C(=O)COc2c1cnc1ccc(Sc3nnc4c(F)cc(-c5cnn(C)c5)cn34)cc21`, the inhibition result in data set [29] and in data set [31] was “inactive” in each case. Also, the TGI result in data set [30] and in data set [32] was “Dose-dependent effect” throughout.
